# Laboratory results reported in ChEMBL document CHEMBL1145469, “Lysostaphin in treatment of neonatal Staphylococcus aureus infection” (Antimicrob Agents Chemother, 2007).
# Assays:
# Rattus norvegicus = assay: Drug level in rat serum at 25 mg/kg, im; assay type: ADME, organism-based; design: dose 25 mg/kg, route intramuscular; details: in vivo
# Serum [1] = assay: Drug level in Staphylococcus aureus infected Wistar rat pups serum at 50 mg/kg, ip; assay type: ADME, organism-based; design: dose 50 mg/kg, route intraperitoneal; details: in vivo
# Staphylococcus aureus = assay: Antibacterial activity against methicillin-sensitive Staphylococcus aureus; assay type: functional
# Serum [2] = assay: Drug level in Staphylococcus aureus infected Wistar rat pups serum at 15 mg/kg, ip; assay type: ADME, organism-based; design: dose 15 mg/kg, route intraperitoneal; details: in vivo
# [3] = Drug level in rat serum at 100 mg/kg, iv after 0.5 hr; assay type: ADME, organism-based; design: dose 100 mg/kg, route intravenous; details: read-out: Drug uptake
# [4] = Drug level in rat serum at 30 mg/kg, sc after 1 hr; assay type: ADME, organism-based; design: dose 30 mg/kg, route subcutaneous; details: read-out: Drug uptake
# [5] = Drug level in rat serum at 100 mg/kg, iv after 2 hrs; assay type: ADME, organism-based; design: dose 100 mg/kg, route intravenous; details: read-out: Drug uptake
Compound,Drug uptake (Rattus norvegicus) [µg/mL],Drug uptake (Serum [1]) [µg/mL],MBC (Staphylococcus aureus) [µg/mL],MIC (Staphylococcus aureus) [µg/mL],Drug uptake (Serum [2]) [µg/mL],concentration at 0.5 h [3] [ng/mL],concentration at 1 h [4] [ng/mL],concentration at 2 h [5] [ng/mL]
CCOc1ccc2ccccc2c1C(=O)N[C@@H]1C(=O)N2[C@@H]1SC(C)(C)[C@@H]2C(=O)O [NAFCILLIN],20.6,,,,,,,
Cc1onc(-c2ccccc2)c1C(=O)N[C@@H]1C(=O)N2[C@@H]1SC(C)(C)[C@@H]2C(=O)O [OXACILLIN],,> 125,0.25,0.125,,,,
CN[C@H](CC(C)C)C(=O)N[C@H]1C(=O)N[C@@H](CC(N)=O)C(=O)N[C@H]2C(=O)N[C@H]3C(=O)N[C@H](C(=O)N[C@H](C(=O)O)c4cc(O)cc(O)c4-c4cc3ccc4O)[C@H](O)c3ccc(c(Cl)c3)Oc3cc2cc(c3O[C@@H]2O[C@H](CO)[C@@H](O)[C@H](O)[C@H]2O[C@H]2C[C@](C)(N)[C@H](O)[C@H](C)O2)Oc2ccc(cc2Cl)[C@H]1O [VANCOMYCIN],,,0.25,,> 125,180000,36000,45000
